# Laboratory results reported in patent EP1300161A1, “Cationic lipids suitable for gene transfer” (rubitec Gesellschaft für Innovation und Technologie der …, priority 2001, dated 2003).
# Entries after “also recorded” stand apart in the source; their conditions may differ.
# Columns and labels:
# COS-7 cell-line [1] = experiment: Lipofection (luciferase reporter) transfection efficiency in COS-7 cells; type: cell-based, African green monkey
# Description: Screening / Lipofection studies: For a broad and reproducible testing the transfection properties of systematically varied new cationic lipids, we recently have developed an fully automated high throughput system ([…]. et al., J. Biomol. Screening (2001)). This system, which comprises the entire lipofection process from liposome formation to reporter gene assay, allows to identify candidate cationic lipids and to develop suitable lipofection reagents and protocols based on those lipids. Automation of this process was necessary, because manually testing of various cationic lipids or lipid mixtures is extremely labor intensive and high reproducibility can not be guarantied. Goal of this first step was to find the cationic lipid with the best hydrocarbon chain composition for the development of suitable lipofection reagents and protocols. All lipids with different hydrocarbon chains (lipids 1-16, table 1) which are R-configurated and have chloride as counter ion were tested using a standard protocol: From each lipid, eight different lipoplexes containing equimolar amounts of the helper lipid DOPE were formed using different DNA:lipid-charge ratios from 1:1 - 1:15, resulting in a lipofection profile for each lipid (fig. 1). The COS-7 cell-line was used for this first lipofection study because COS-7 is easy to transfect and differences between the lipids are easy to identify. For comparison, the transfection efficiency of the well know cationic lipid DOTAP at its best lipid/DNA charge ration of 2.5 was also determined in each run. Cell culture: The initial transfection screening was carried out using COS-7 cells. The cells were maintained in 96-well culture plates (Greiner, Frickenhausen, Germany) in 200 μl EMEM/10 % FCS/1 % Penicillin-streptomycin in a humidified atmosphere at 37 °C/5 % CO2. […] For the subsequent quantification of transfection efficiency (part 2) a reporter plasmid carrying the firefly luciferase gene under the control of the CMV promoter is used to form lipoplexes. […]
# [2] = tested on: mamma carcinoma cell line MDA-MB-468; experiment: Lipofection transfection efficiency in MDA-MB-468 cells; type: cell-based
# [3] = tested on: mamma carcinoma cell line MCF-7; experiment: Lipofection transfection efficiency in MCF-7 cells; type: cell-based
# primary dendritic cells = experiment: Lipofection transfection efficiency in primary dendritic cells; type: cell-based, human
# [4] = tested on: polarized cell line MDCK-C7
# [5] = Cytotoxicity of lipoplexes (protein content of transfected versus non-transfected cells); type: cell-based, African green monkey; details: monkey, cos-7 cells; equimolar DOPE, COS-7; read-out: vitality of the cells at maximum transfection efficiency
# Protocol: (§1) Goal of this first step was to find the cationic lipid with the best hydrocarbon chain composition for the development of suitable lipofection reagents and protocols. All lipids with different hydrocarbon chains (lipids 1-16, table 1) which are R-configurated and have chloride as counter ion were tested using a standard protocol: From each lipid, […] DNA:lipid-charge ratios from 1:1 - 1:15, resulting in a lipofection profile for each lipid (fig. 1). The COS-7 cell-line was used for this first lipofection study because COS-7 is easy to transfect and differences between the lipids are easy to identify. For comparison, the transfection efficiency of the well know cationic lipid DOTAP at its best lipid/DNA charge ration of 2.5 was also determined in each run. Part 2 (Transfection assays): After lipoplex formation, the robot took the cell culture microtiter plates from an incubator and removed the lid from the plates. Immediately prior to transfection, 100 µl of the culture medium were removed and the lipoplexes were dispensed into the wells (triplicates). The lids were replaced and the MTP were returned to the incubator. […] Assay specific standards and controls were added to the microplates, and luciferase activity and protein content of the lysates were measured. Transfection efficiencies were calculated by dividing luciferase activity by protein content.
# COS-7 cell-line [6] = experiment: as above; type: cell-based, African green monkey; details: Chol as helper lipid, ratio 0.7, chloride
# Protocol: as §1
# COS-7 cell-line [7] = experiment: Lipofection (luciferase reporter) transfection efficiency in COS-7 cells; type: cell-based, African green monkey; remark: listed apart in the source
# [8] = racemic, chloride, 70 mol-% cholesterol, MDA-MB-468
# [9] = racemic, chloride, 70 mol-% cholesterol
smiles,measurement,setting,value
"CCCCCCCC/C=C\CCCCCCCC(=O)OCC(C[N+](C)(C)C)OC(=O)CCCCCCC/C=C\CCCCCCCC (stereo not shown) [DOTAP, N-(1(2,-dioleyoyl)propyl)-N,N,N-trimethylammonium chloride, reference compound]",transfection efficiency,"COS-7 cell-line [1]; COS-7, lower line","466,72 +/- 320,44 (11) rlu/µg protein/ml"
same,transfection efficiency,"[2]; MDA-MB468, lower line","92,58 +/- 82,86 (9) rlu/µg protein/ml"
same,transfection efficiency,[3]; lower line,"101,65 +/- 93,42 (7) rlu/µg protein/ml"
same,transfection efficiency,"primary dendritic cells; DC 5day, lower line","3,18 +/- 5,87 (3) rlu/µg protein/ml"
same,transfection efficiency,[4],"26,64 +/- 3,33 (2) rlu/µg protein/ml"
CCCCCCCCCCCCCCN(CCCCCCCCCCCCCC)CC(O)CO (stereo not shown) [KL-14-analog which was not methylated],transfection,COS-7 cell-line [1]; not methylated analog,did not transfect at all
CCCCCCCCCCCCCC[N+](C)(CCCCCCCCCCCCCC)CC(O)CO (stereo not shown) [KL-14],transfection efficiency (comparison within the library),"COS-7 cell-line [1]; R-configurated, chloride, equimolar DOPE, COS-7",most effective; also recorded: highest transfection efficiency
same,"transfection efficiency, DOPE-formulation compared with cholesterol mixture","[2]; equimolar mixture with DOPE, MDA-MB-468",lower
same,factor by which transfection efficiency is reduced in comparison with COS-7-cells,[2]; [8],about 12
same,"transfection efficiency, times higher than for DOTAP",[2]; [8],8
same,"transfection efficiency, DOPE-formulation compared with cholesterol mixture",[3]; equimolar mixture with DOPE,lower
same,factor by which transfection efficiency is reduced in comparison with COS-7-cells,[3]; [9],about 12
same,"transfection efficiency, times higher than for DOTAP",[3]; [9],8
same,factor by which transfection efficiency is reduced in comparison with COS-7-cells,"primary dendritic cells; racemic, chloride, 70 mol-% cholesterol, dendritic cell",about 600
same,"transfection efficiency, fold increase over DOTAP","primary dendritic cells; racemic, chloride, 70 mol-% cholesterol, dendritic cells",1.5-2
same,viability,[5],~70%
same,"toxicity, R- versus S-configuration",COS-7 cell-line [6],statistically similar
same,factor by which transfection efficiency is reduced in comparison with COS-7-cells,[4],about 100
same,"transfection efficiency, fold increase over DOTAP",[4],1.5-2
same,"transfection efficiency, R- versus S-configuration","COS-7 cell-line [7]; Chol as helper lipid, ratio 0.7, chloride",statistically similar
same,Chol/KL-14 ratio giving highest transfection efficiency,COS-7 cell-line [7]; Cholesterol as helper lipid,0.5-0.7
same,transfection efficiency,"COS-7 cell-line [7]; Cholesterol as helper lipid, Chol/KL-14 ratios 0.3 - 1.2, compared with DOPE mixtures",always higher than for the mixtures of KL-14 with DOPE
same,transfection efficiency,"COS-7 cell-line [7]; DOPE as helper lipid, DOPE/KL-14 ratio 0.3 to 1.2",very high
same,transfection efficiency as % of the chloride values,"COS-7 cell-line [7]; racemic, counter ion acetate, cholesterol/KL-14 ratio 0.7",57%
same,transfection efficiency (comparison of counter ions),"COS-7 cell-line [7]; racemic, counter ion chloride, cholesterol/KL-14 ratio 0.7",highest transfection efficiency
same,transfection efficiency as % of the values found for chloride,"COS-7 cell-line [7]; racemic, counter ion methylsulfate, cholesterol/KL-14 ratio 0.7",70-75%
same,transfection efficiency as % of the values found for chloride,"COS-7 cell-line [7]; racemic, counter ion sulfate, cholesterol/KL-14 ratio 0.7",70-75%
same,transfection efficiency as % of that of the standard lipid DOTAP,COS-7 cell-line [7]; without helper lipids,70%
